Results taken from EP2604265A1, “P2x7 antagonists as frontline or adjunctive treatment against status epilepticus” (Royal College of Surgeons in Ireland (RCSI), priority 2011, dated 2013).

What was measured:
[1] = system: Adult male C57BL/6 mice; test: Intra-amygdala KA-induced SE in mice, EEG, early post-treatment after seizure onset; format: in vivo; details: i.c.v. 15 min after KA
Experimental: Adult male C57BL/6 mice (20-25 g) were obtained from Harlan UK (Blackthorn, UK). Mice were first anesthetized using isoflurane (3-5%) and maintained normothermic by means of a feedback-controlled heat blanket (Harvard Apparatus Ltd, Kent, UK). Mice were next placed in a stereotaxic frame and three partial craniectomies performed to affix cortical skull-mounted EEG electrodes (Bilaney Consultants Ltd, Sevenoaks, UK). EEG was recorded using a Grass Comet XL digital EEG (Medivent Ltd, Lucan, Ireland). A guide cannula was affixed (coordinates from Bregma: AP = 0.94; L = 2.85 mm) and the assembly fixed in place with dental cement. Anesthesia was then discontinued and freely moving mice were placed inside a clear perspex recording chamber. EEG recordings were commenced and after establishing baseline EEG for a few minutes, an injection cannula was lowered through the guide cannula for injection of kainic acid (KA) (Ocean Produce International, Nova Scotia, Canada) into the basolateral amygdala nucleus (0.3 µg in 0.2 µl phosphate-buffered saline). Non-seizure control mice underwent the same surgical procedure but received 0.2 µl intra-amygdala vehicle. Mice were killed at different time-points (1, 4, 8 or 24 h) later and perfused with saline to remove intravascular blood components. Brains were either flash-frozen whole in 2-methylbutane at […] or perfused with 4% PFA for histopathology, or dissected on ice to obtain whole hippocampus or microdissected to obtain the different hippocampal subfields (CA1, DG and CA3).
Digitized EEG recordings were analyzed off-line using manual assessment and automated software. The occurrence of high amplitude high frequency spiking during seizures is synonymous with injury-causing electrographic seizures during SE (also termed type IV electrographic seizures) (Lowenstein et al., 1991; Henshall et al., 2000). The duration of high-frequency (>5 Hz) high-amplitude (>2× baseline) polyspike discharges of ≥5 s duration (HAHFDs) was counted by a reviewer blind to treatment. Further EEG analysis was performed by uploading EEG into Labchart7 software (ADInstruments) to calculate the power spectral density (total power, a measure of the input signal's power (amplitude) over frequency) EEG spectrogram (spectral power against frequency and time).
A-438079 (3-[[5-(2,3-Dichlorophenyl)-1H-tetrazol-1-yl]methyl]pyridine hydrochloride) (50 µM) was from Tocris Biosciences (Bristol, U.K.) and the P2X7R specific antibody was from Alomone Labs (APR-008, Alomone Labs, Ltd, Jerusalem, Israel) and injected at 0.7 mg/ml. Lorazepam (Ativan®, Wyeth, Taplow, U.K.) (6 mg/kg) was administered intraperitoneally (i.p.) at 40 or 60 min after KA.
15 min after the injection of KA. […]

[2] = biological target: T1, P2X2 (Homo sapiens, UniProt Q9UBL9); details: selectivity of BBG; cited from earlier work
T1 sequence (Q9UBL9 1-471): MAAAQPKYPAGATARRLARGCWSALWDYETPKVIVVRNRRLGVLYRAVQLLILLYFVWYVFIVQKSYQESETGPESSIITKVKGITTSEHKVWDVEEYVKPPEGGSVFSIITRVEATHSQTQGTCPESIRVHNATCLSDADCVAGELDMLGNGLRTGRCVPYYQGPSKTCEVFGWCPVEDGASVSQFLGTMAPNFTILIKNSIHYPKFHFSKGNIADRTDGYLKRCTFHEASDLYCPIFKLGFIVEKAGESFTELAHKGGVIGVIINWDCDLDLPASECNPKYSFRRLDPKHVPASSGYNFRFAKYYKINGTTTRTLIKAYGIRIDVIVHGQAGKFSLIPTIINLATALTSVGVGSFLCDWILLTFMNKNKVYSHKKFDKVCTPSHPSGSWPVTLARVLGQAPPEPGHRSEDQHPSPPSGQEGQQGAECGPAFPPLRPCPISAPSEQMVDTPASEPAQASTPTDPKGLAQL

Cl.Clc1cccc(-c2nnnn2Cc2cccnc2)c1Cl [A-438079, 3-[[5-(2,3-Dichlorophenyl)-1H-tetrazol-1-yl]methyl]pyridine hydrochloride]
duration of HAHFDs ([1]; recorded until lorazepam at 40 min post-KA, vs vehicle): significantly reduced | Total seizure power ([1]; until 40 min post-KA, vs vehicle): significantly reduced | frequency of the EEG ([1]; vs vehicle): No changes | seizure amplitude ([1]; spectral heat map during SE): decreased

CCOc1ccc(Nc2ccc(C(=C3C=CC(=[N+](CC)Cc4cccc(S(=O)(=O)[O-])c4)C=C3C)c3ccc(N(CC)Cc4cccc(S(=O)(=O)O)c4)cc3C)cc2)cc1 [BBG, Brilliant Blue G]
inhibition of P2X2 [2]: low micromolar range
